Counter-ions that a name gives are not always drawn.
Columns and labels:
[1] = system: serum corticosteroid levels; assay: Block of stress-induced rise of serum corticosteroid levels (antianxiety); assay type: in vivo; details: stressed male rats, 20 mg/kg i.p.; for response vs control in vivo at 20 mg/kg: Rattus norvegicus, ip, saline control 100, values below 100% are indicative of activity, read-out: Serum Corticosteroid Levels μg %
Method: See British Medical Journal, 1971 (2), p. 310-313. Corticosteroid levels were compared between stressed male rats pretreated with 20 mg/kg of the active compound given by intraperitoneal injection to corticosteroid levels of stressed male rats pretreated with saline. Blood (3 ml) was collected by means of cardiac puncture after methoxyflurane anesthesia. Following clotting, the blood was centrifuged to separate the serum for use in the corticosteroid analysis. The analysis was carried out by adding 5 ml of methylene chloride to 300 μl of the serum sample and vortexing the sample for 15-20 seconds. The samples were then centrifuged at 41 xg for about 5 minutes. The lipid layer was removed by aspiration and 3 ml of the methylene chloride fraction was transferred to a clean tube. To this sample, 3 ml of fluorescence reagent (25% ethanol and 75% concentrated sulfuric acid) was added and vortexed for 5 seconds. Fluorescence development was complete in 20 minutes and was read on a Perkin-Elmer® fluorometer Model 204 at an exciter wavelength of 470 mμ and an analyzer wavelength of 530 mμ. This assay measures free cortisol and corticosterone. The corticosteroid values were calculated as follows: [formula] […] Values below 100% are indicative of activity.

[2] = system: reserpine-induced ptosis; assay: Protection against reserpine-induced ptosis (antidepressant); assay type: in vivo; details: Mus musculus; mice, 30 mg/kg i.p.; reserpine 2.5 mg/kg s.c. after 30 minutes; graded after 45 minutes; saline control 0
Method: Groups of four mice were administered 30 mg/kg of the 3-(1,2-diarylethyl)-1,4,5,6-tetrahydro-1,2,4-triazine compounds by intraperitoneal injection via an aqueous carrier. A similar group of mice serving as controls were injected only with the carrier. After 30 minutes, both groups of mice were injected subcutaneously with 2.5 mg/kg of reserpine.
Animals injected with the triazine compound were graded after 45 minutes on the following basis: no ptosis=0, partial ptosis=1, complete ptosis=2. Complete protection against reserpine-induced ptosis gives a value of 0 or 100%.

[3] = system: depression; details: U.S. Pat. No. 3,471,486; Journal of Medicinal Chemistry, 12, 257 (1969); cited from earlier work
[4] = system: anxiety; assay: Antianxiety activity, test not specified (background and summary statements); assay type: in vivo; details: test not stated

Row | Structure (SMILES) | response vs control in vivo at 20 mg/kg [1] | inhibition at 30 mg/kg [2] | antianxiety activity (in words, from Table II) [1] | antidepressant activity of prior-art compound (in words) [3] | antianxiety activity of prior-art compound (in words) [4]
1 | c1ccc(CC(C2=NNCCN2)c2cccc3ccccc23)cc1 (stereo not drawn) [Example 11] | 77% | 25% |  |  | 
2 | Cc1ccc(CC(C2=NNCCN2)c2ccccc2)cc1C (stereo not drawn) [Example 12] | 33% | 25% | especially active as antianxiety agents |  | 
3 | c1ccc(C(Cc2cccc3ccccc23)C2=NNCCN2)cc1 (stereo not drawn) [Example 15] | 72% | 13% |  |  | 
4 | c1ccc(C(Cc2ccc3ccccc3c2)C2=NNCCN2)cc1 (stereo not drawn) [Example 16] | 39% | 42% | especially active as antianxiety agents |  | 
5 | Clc1cccc(CC(C2=NNCCN2)c2ccccc2)c1 (stereo not drawn) [Example 7] | 75% | 88% |  |  | 
6 | Cc1ccc(CC(C2=NNCCN2)c2ccccc2)cc1 (stereo not drawn) [Example 6] | 62% | 50% |  |  | 
7 | Clc1cccc(Cl)c1CC(C1=NNCCN1)c1ccccc1 (stereo not drawn) [Example 13, 3-(2-(2,6-Dichlorophenyl)-1-phenylethyl)-1,4,5,6-tetrahydro-1,2,4-triazine monohydrochloride] | 39% | 88% |  |  | 
8 | Cc1cccc(C(Cc2ccccc2)C2=NNCCN2)c1 (stereo not drawn) [Example 8] | 52% | 38% |  |  | 
9 | Cl.Fc1ccc(CC(C2=NNCCN2)c2ccccc2)cc1 (stereo not drawn) [Example 1, 3-(2-(4-fluorophenyl)-1-phenylethyl)-1,4,5,6-tetrahydro-1,2,4-triazine monohydrochloride] | 25% | 63% | especially active as antianxiety agents |  | 
10 | Clc1ccc(CC(C2=NNCCN2)c2ccccc2)cc1Cl (stereo not drawn) [Example 14] | 79% | 63% |  |  | 
11 | Cc1ccc(C(Cc2ccccc2)C2=NNCCN2)cc1 (stereo not drawn) [Example 4, 3-(1-(4-Methylphenyl)-2-phenylethyl)-1,4,5,6-tetrahydro-1,2,4-triazine monohydrochloride] | 67% | 38% |  |  | 
12 | CC(=O)N1CCN(C)N=C1C(Cc1ccccc1)c1ccccc1 (stereo not drawn) [Example 19, 4-acetyl-3-(1,2-diphenylethyl)-1,4,5,6-tetrahydro-1-methyl-1,2,4-triazine monohydrochloride] | 77% | 13% |  |  | 
13 | COc1ccc(C(Cc2ccc(F)cc2)C2=NNCCN2)cc1 (stereo not drawn) [Example 3, 3-(2-(4-Fluorophenyl)-1-(4-methoxyphenyl)ethyl)-1,4,5,6-tetrahydro-1,2,4-triazine monohydrochloride] | 82% | 38% |  |  | 
14 | c1ccc(CC(C2=NNCCN2)c2ccc3ccccc3c2)cc1 (stereo not drawn) [Example 10, 3-(1-(2-Naphthalenyl)-2-phenylethyl)-1,4,5,6-tetrahydro-1,2,4-triazine monohydrochloride] | 54% | 50% |  |  | 
15 | CN1CCNC(C(Cc2ccc(Cl)cc2)c2ccccc2)=N1 (stereo not drawn) [Example 18, 3-(2-(4-Chlorophenyl)-1-phenylethyl)-1,4,5,6-tetrahydro-1-methyl-1,2,4-triazine monohydrochloride] | 77% | 50% |  |  | 
16 | Cl.Clc1ccc(CC(C2=NNCCN2)c2ccccc2)cc1 (stereo not drawn) [Example 2, 3-(2-(4-Chlorophenyl)-1-phenylethyl)-1,4,5,6-tetrahydro-1,2,4-triazine monohydrochloride] | 13% | 88% | especially active as antianxiety agents |  | 
17 | Cc1cccc(CC(C2=NNCCN2)c2ccccc2)c1 (stereo not drawn) [Example 5] | 32% | 25% |  |  | 
18 | c1ccc(CC(C2=NNCCN2)c2ccc3c(c2)OCO3)cc1 (stereo not drawn) [Example 9] | 33% | 50% | especially active as antianxiety agents |  | 
19 | Fc1cccc(CC(C2=NNCCN2)c2ccccc2)c1 (stereo not drawn) [Example 17] | 62% | 25% |  |  | 
20 | c1ccc(CC(C2=NNCCN2)c2ccccc2)cc1 (stereo not drawn) [3-(1,2-diphenylethyl)-1,4,5,6-tetrahydro-1,2,4-triazine] |  |  |  | antidepressant | essentially inactive

— patent US4263295A, “Psychoactive 3-(1-2-diarylethyl)-1,4,5,6-tetrahydro-1,2,4-triazines and their method of use” (The Dow Chemical Company, priority 1977, dated 1981)
